Measured values taken from patent US6552196B2, “Quinolone carboxylic acid derivatives” (Dong Wha Pharmaceutical Industrial Co., Ltd., priority 1997, dated 2003).
Converted amounts (≈) assume the structure as drawn.

Key:
Type in all cases: cell-based
[1] = tested on: Staphylococcus aureus 88E; assay: In vitro antibacterial activity against resistant strains (MIC); details: resistant strain Staphylococcus aureus 88E; 2-fold agar dilution; methicillin resistant strains 48 hours at 30° C.; read-out: minimum inhibitory concentration (MIC)
Procedure: (§1) 10^7 cfu/ml of bacteria were inoculated and cultured for 18 hours at 37° C. and then the antibacterial activities were measured. For the methicillin resistant strains the activities were measured after 48 hours of cultivation at 30° C. Hoechst Standard strains were used for the testings.

[2] = tested on: Staphylococcus aureus 293; assay: as above; details: resistant strain Staphylococcus aureus 293; 2-fold agar dilution; methicillin resistant strains 48 hours at 30° C.; read-out: minimum inhibitory concentration (MIC)
Procedure: as §1

[3] = tested on: Staphylococcus aureus 692E; assay: as above; details: resistant strain Staphylococcus aureus 692E; 2-fold agar dilution; methicillin resistant strains 48 hours at 30° C.; read-out: minimum inhibitory concentration (MIC)
Procedure: as §1

[4] = tested on: Staphylococcus aureus 695E; assay: as above; details: resistant strain Staphylococcus aureus 695E; 2-fold agar dilution; methicillin resistant strains 48 hours at 30° C.; read-out: minimum inhibitory concentration (MIC)
Procedure: as §1

[5] = tested on: Staphylococcus aureus 121E; assay: as above; details: resistant strain Staphylococcus aureus 121E; 2-fold agar dilution; methicillin resistant strains 48 hours at 30° C.; read-out: minimum inhibitory concentration (MIC)
Procedure: as §1

[6] = tested on: Staphylococcus aureus 241; assay: as above; details: resistant strain Staphylococcus aureus 241; 2-fold agar dilution; methicillin resistant strains 48 hours at 30° C.; read-out: minimum inhibitory concentration (MIC)
Procedure: as §1

[7] = tested on: Staphylococcus aureus 694E; assay: as above; details: resistant strain Staphylococcus aureus 694E; 2-fold agar dilution; methicillin resistant strains 48 hours at 30° C.; read-out: minimum inhibitory concentration (MIC)
Procedure: as §1

[8] = tested on: Staphylococcus aureus 208E; assay: as above; details: resistant strain Staphylococcus aureus 208E; 2-fold agar dilution; methicillin resistant strains 48 hours at 30° C.; read-out: minimum inhibitory concentration (MIC)
Procedure: as §1

[9] = tested on: Staphylococcus aureus 303; assay: as above; details: resistant strain Staphylococcus aureus 303; 2-fold agar dilution; methicillin resistant strains 48 hours at 30° C.; read-out: minimum inhibitory concentration (MIC)
Procedure: as §1

[10] = tested on: Staphylococcus aureus 701E; assay: as above; details: resistant strain Staphylococcus aureus 701E; 2-fold agar dilution; methicillin resistant strains 48 hours at 30° C.; read-out: minimum inhibitory concentration (MIC)
Procedure: as §1

[11] = tested on: Staphylococcus epidermidis 291; assay: as above; details: resistant strain Staphylococcus epidermidis 291; 2-fold agar dilution; methicillin resistant strains 48 hours at 30° C.; read-out: minimum inhibitory concentration (MIC)
Procedure: as §1

[12] = tested on: Staphylococcus aureus 693E; assay: as above; details: resistant strain Staphylococcus aureus 693E; 2-fold agar dilution; methicillin resistant strains 48 hours at 30° C.; read-out: minimum inhibitory concentration (MIC)
Procedure: as §1

[13] = tested on: Staphylococcus aureus 690E; assay: as above; details: resistant strain Staphylococcus aureus 690E; 2-fold agar dilution; methicillin resistant strains 48 hours at 30° C.; read-out: minimum inhibitory concentration (MIC)
Procedure: as §1

[14] = tested on: Staphylococcus aureus 703E; assay: as above; details: resistant strain Staphylococcus aureus 703E; 2-fold agar dilution; methicillin resistant strains 48 hours at 30° C.; read-out: minimum inhibitory concentration (MIC)
Procedure: as §1

[15] = tested on: Staphylococcus epidermidis 178; assay: as above; details: resistant strain Staphylococcus epidermidis 178; 2-fold agar dilution; methicillin resistant strains 48 hours at 30° C.; read-out: minimum inhibitory concentration (MIC)
Procedure: as §1

[16] = tested on: Staphylococcus aureus 256E; assay: as above; details: resistant strain Staphylococcus aureus 256E; 2-fold agar dilution; methicillin resistant strains 48 hours at 30° C.; read-out: minimum inhibitory concentration (MIC)
Procedure: as §1

[17] = tested on: Staphylococcus aureus 697E; assay: as above; details: resistant strain Staphylococcus aureus 697E; 2-fold agar dilution; methicillin resistant strains 48 hours at 30° C.; read-out: minimum inhibitory concentration (MIC)
Procedure: as §1

[18] = tested on: Staphylococcus aureus 8236; assay: as above; details: resistant strain Staphylococcus aureus 8236; 2-fold agar dilution; methicillin resistant strains 48 hours at 30° C.; read-out: minimum inhibitory concentration (MIC)
Procedure: as §1

[19] = tested on: Staphylococcus aureus 179; assay: as above; details: resistant strain Staphylococcus aureus 179; 2-fold agar dilution; methicillin resistant strains 48 hours at 30° C.; read-out: minimum inhibitory concentration (MIC)
Procedure: as §1

[20] = tested on: Klebsiella aerogenes 1522E; assay: In vitro antibacterial activity (MIC), agar dilution; details: 2-fold agar dilution, Muller-Hinton agar, 18 hours at 37° C., read-out: minimum inhibitory concentration (MIC)
Procedure: as §1

[21] = tested on: Staphylococcus aureus 503; assay: as above; details: 2-fold agar dilution, Muller-Hinton agar, 18 hours at 37° C., read-out: minimum inhibitory concentration (MIC)
Procedure: as §1

[22] = tested on: Pseudomonas aeruginosa 1592E; assay: as above; details: 2-fold agar dilution, Muller-Hinton agar, 18 hours at 37° C., read-out: minimum inhibitory concentration (MIC)
Procedure: as §1

[23] = tested on: Streptococcus faecium MD 8b; assay: as above; details: Enterococcus faecium, MD8B, 2-fold agar dilution, Muller-Hinton agar, 18 hours at 37° C., read-out: minimum inhibitory concentration (MIC)
Procedure: as §1

[24] = tested on: Pseudomonas aeruginosa 1771; assay: as above; details: 2-fold agar dilution, Muller-Hinton agar, 18 hours at 37° C., read-out: minimum inhibitory concentration (MIC)
Procedure: as §1

[25] = tested on: Pseudomonas aeruginosa 1771M; assay: as above; details: Pseudomonas aeruginosa, 1771M, 18 h, read-out: minimum inhibitory concentration (MIC)
Procedure: as §1

[26] = tested on: Enterobacter clocae 1321E; assay: as above; details: 2-fold agar dilution, Muller-Hinton agar, 18 hours at 37° C., read-out: minimum inhibitory concentration (MIC)
Procedure: as §1

Esherichia coli 1507E = assay: as above; details: 2-fold agar dilution, Muller-Hinton agar, 18 hours at 37° C., read-out: minimum inhibitory concentration (MIC)
Procedure: as §1

Esherichia coli 078 = assay: as above; details: 2-fold agar dilution, Muller-Hinton agar, 18 hours at 37° C., read-out: minimum inhibitory concentration (MIC)
Procedure: as §1

[27] = tested on: Pseudomonas aeruginosa 9027; assay: as above; details: 2-fold agar dilution, Muller-Hinton agar, 18 hours at 37° C., read-out: minimum inhibitory concentration (MIC)
Procedure: as §1

[28] = tested on: Staphylococcus aureus 285; assay: as above; details: 2-fold agar dilution, Muller-Hinton agar, 18 hours at 37° C., read-out: minimum inhibitory concentration (MIC)
Procedure: as §1

Enterobacter clocae P99 = assay: as above; details: 2-fold agar dilution, Muller-Hinton agar, 18 hours at 37° C., read-out: minimum inhibitory concentration (MIC)
Procedure: as §1

Esherichia coli TEM = assay: as above; details: 2-fold agar dilution, Muller-Hinton agar, 18 hours at 37° C., read-out: minimum inhibitory concentration (MIC)
Procedure: as §1

[29] = tested on: Streptococcus pyogens 308A; assay: as above; details: 2-fold agar dilution, Muller-Hinton agar, 18 hours at 37° C., read-out: minimum inhibitory concentration (MIC)
Procedure: as §1

[30] = tested on: Streptococcus pyogens 77A; assay: as above; details: 2-fold agar dilution, Muller-Hinton agar, 18 hours at 37° C., read-out: minimum inhibitory concentration (MIC)
Procedure: as §1

Esherichia coli DC0 = assay: as above; details: 2-fold agar dilution, Muller-Hinton agar, 18 hours at 37° C., read-out: minimum inhibitory concentration (MIC)
Procedure: as §1

Salmonella typhimurium = assay: as above; details: Salmonella enterica, 2-fold agar dilution, Muller-Hinton agar, 18 hours at 37° C., read-out: minimum inhibitory concentration (MIC)
Procedure: as §1

Klebsiella oxytoca 1082E = assay: as above; details: 2-fold agar dilution, Muller-Hinton agar, 18 hours at 37° C., read-out: minimum inhibitory concentration (MIC)
Procedure: as §1

[31] = tested on: Staphylococcus aureus SG511; assay: as above; details: 2-fold agar dilution, Muller-Hinton agar, 18 hours at 37° C., read-out: minimum inhibitory concentration (MIC)
Procedure: as §1

SMILES | MIC [20] | MIC [21] | MIC [22] | MIC [23] | MIC [24] | MIC [25] | MIC [26] | MIC (Esherichia coli 1507E) | MIC (Esherichia coli 078) | MIC [27] | MIC [28] | MIC (Enterobacter clocae P99) | MIC (Esherichia coli TEM) | MIC [29] | MIC [30] | MIC (Esherichia coli DC0) | MIC (Salmonella typhimurium) | MIC (Klebsiella oxytoca 1082E) | MIC [31] | also measured
CCON=C1CN(c2c(F)c(N)c3c(=O)c(C(=O)O)cn(C4CC4)c3c2F)CC12CNC2.CS(=O)(=O)O [Example 9, 1-Cyclopropyl-5-amino-6,8-difluoro-7-[8-(ethoxyimino)-2,6-diazaspiro[3,4]oct-6-yl]-4-oxo-1,4-dihydro-3-quinolinecarboxylic acid methanesulfonate] | 0.049 µg/mL | < 0.002 µg/mL | 0.781 µg/mL | 0.049 µg/mL | 0.781 µg/mL | 0.391 µg/mL | 0.007 µg/mL | 0.013 µg/mL | 0.004 µg/mL | 0.781 µg/mL | 0.007 µg/mL | 0.007 µg/mL | 0.013 µg/mL | 0.025 µg/mL | 0.004 µg/mL | 0.195 µg/mL | 0.007 µg/mL | < 0.002 µg/mL | < 0.002 µg/mL | MIC [1]: 0.007 µg/mL; MIC [2]: 0.098 µg/mL; MIC [3]: 0.007 µg/mL; MIC [4]: 0.013 µg/mL; MIC [5]: 0.013 µg/mL; MIC [6]: 0.098 µg/mL; MIC [7]: 0.013 µg/mL; MIC [8]: 0.013 µg/mL; MIC [9]: 0.098 µg/mL; MIC [10]: 0.013 µg/mL; MIC [11]: 0.391 µg/mL; MIC [12]: 0.013 µg/mL; MIC [13]: 0.007 µg/mL; MIC [14]: 0.013 µg/mL; MIC [15]: 0.391 µg/mL; MIC [16]: 0.013 µg/mL; MIC [17]: 0.004 µg/mL; MIC [18]: 0.098 µg/mL; MIC [19]: 0.098 µg/mL
CON=C1CN(c2c(F)cc3c(=O)c(C(=O)O)cn(C4CC4)c3c2Cl)CC12CNC2 [Example 4, 1-Cyclopropyl-6-fluoro-8-chloro-7-[8-(methoxyimino)-2,6-diazaspiro[3,4]oct-6-yl]-4-oxo-1,4-dihydro-3-quinolinecarboxylic acid] | 0.098 µg/mL (≈ 0.225 µM) | 0.025 µg/mL (≈ 0.0575 µM) | 0.781 µg/mL (≈ 1.8 µM) | 0.098 µg/mL (≈ 0.225 µM) | 0.781 µg/mL (≈ 1.8 µM) | 0.391 µg/mL (≈ 0.899 µM) | 0.025 µg/mL (≈ 0.0575 µM) | 0.049 µg/mL (≈ 0.113 µM) | 0.025 µg/mL (≈ 0.0575 µM) | 0.781 µg/mL (≈ 1.8 µM) | 0.049 µg/mL (≈ 0.113 µM) | 0.049 µg/mL (≈ 0.113 µM) | 0.049 µg/mL (≈ 0.113 µM) | 0.195 µg/mL (≈ 0.448 µM) | 0.013 µg/mL (≈ 0.0299 µM) | 0.391 µg/mL (≈ 0.899 µM) | 0.025 µg/mL (≈ 0.0575 µM) | 0.004 µg/mL (≈ 0.0092 µM) | 0.013 µg/mL (≈ 0.0299 µM) | –
CCON=C1CN(c2nc3c(cc2F)c(=O)c(C(=O)O)cn3C2CC2)CC12CNC2.CS(=O)(=O)O [Example 8, 1-Cyclopropyl-6-fluoro-7-[8-(ethoxyimino)-2,6-diazaspiro[3,4]oct-6-yl]-4-oxo-1,4-dihydro-1,8-naphthyridine-3-carboxylic acid methanesulfonate] | 0.098 µg/mL | 0.013 µg/mL | 0.781 µg/mL | 0.098 µg/mL | 0.781 µg/mL | 0.781 µg/mL | 0.025 µg/mL | 0.049 µg/mL | 0.013 µg/mL | 1.56 µg/mL | 0.025 µg/mL | 0.025 µg/mL | 0.025 µg/mL | 0.098 µg/mL | 0.007 µg/mL | 0.391 µg/mL | 0.013 µg/mL | 0.004 µg/mL | 0.007 µg/mL | –
